In patent US20230095836A1, “SUBSTITUTED 5,6-DIPHENYL-3(2H)-PYRIDAZINONES FOR USE AS FUNGICIDES” (FMC Corporation, priority 2020, published 2023):

Experiments:
Assay type in all cases: in vivo
[1] = tested on: Puccinia recondita f. sp. tritici; experiment: Test B: test solution sprayed on wheat seedlings, inoculated next day with Puccinia recondita f. sp. tritici (wheat leaf rust); disease rating (100 = 100% disease control, 0 = no control; dash = not tested)
Source text: The resulting test suspensions were then used in Tests A-F. The test solution was sprayed to the point of run-off on wheat seedlings. […] A rating of 100 indicates 100% disease control and a rating of 0 indicates no disease control (relative to the controls). A dash (—) indicates the compound was not tested.

Botrytis cinerea = experiment: Test E: test suspension sprayed on tomato seedlings, inoculated next day with Botrytis cinerea (tomato Botrytis); visual disease rating (100 = 100% disease control, 0 = no control; dash = not tested)
Procedure, shortened: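 Spores were applied one day after spraying the seedlings to run-off. Incubation was 48 h saturated at 20° C, then 3 days in a 24° C growth chamber. Visual ratings, relative to untreated controls, run from 0 (no control) to 100 (complete control).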

[2] = tested on: Blumeria graminis f. sp. tritici; experiment: Test C: test suspension sprayed on wheat seedlings, inoculated next day with Blumeria graminis f. sp. tritici (wheat powdery mildew); visual disease rating (100 = 100% disease control, 0 = no control; dash = not tested)
Procedure, shortened: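 Visual ratings of disease control (0–100, relative to controls) were made 8 days after inoculation with B. graminis f. sp. tritici spore dust. Plants were held at 20 °C. Compound was applied as a spray to run-off one day before inoculation.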

Phakopsora pachyrhizi = experiment: Test D: test solution sprayed on soybean seedlings, inoculated next day with Phakopsora pachyrhizi (Asian soybean rust); visual disease rating (100 = 100% disease control, 0 = no control; dash = not tested)
Procedure, shortened: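 Preventive spray test: soybean seedlings treated to run-off with ppm-level suspensions (acetone/water 50/50, 250 ppm PEG400), spore-inoculated one day later. Held 24 h at 22 °C in saturated air, then 8 days at 22 °C; disease control scored visually versus untreated plants, 0 = none, 100 = complete.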

Alternaria solani = experiment: Test F: test suspension sprayed on tomato seedlings, inoculated next day with Alternaria solani (tomato early blight); visual disease rating (100 = 100% disease control, 0 = no control; dash = not tested)
Procedure, shortened: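 Visual ratings of % disease control versus controls were made after inoculated plants spent 48 h at 27° C. in saturated air plus 3 days at 20° C. The compound suspension had been sprayed to run-off one day before spore inoculation.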

Zymoseptoria tritici = experiment: Test A: test solution sprayed on wheat seedlings, inoculated next day with Zymoseptoria tritici (wheat leaf blotch); disease rating (100 = 100% disease control, 0 = no control; dash = not tested)
Procedure, shortened: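 Preventive spray test: compound applied to run-off one day before spore inoculation of wheat seedlings. Incubation was 48 h saturated humidity at 24° C followed by 17 days at 20° C. Disease then scored 0–100 as % control versus untreated plants.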

| Compound | Test B disease control rating ([1]; 50 ppm) | Test E disease control rating (Botrytis cinerea; 50 ppm) | Test C disease control rating ([2]; 50 ppm) | Test D disease control rating (Phakopsora pachyrhizi; 50 ppm) | Test F disease control rating (Alternaria solani; 50 ppm) | Test A disease control rating (Zymoseptoria tritici; 50 ppm) | further results |
| --- | --- | --- | --- | --- | --- | --- | --- |
| COc1ccc(Cl)c(-c2nn(C)c(=O)c(OC)c2-c2c(F)cccc2F)c1 [Compound 50] | 98% | 96% | 99% | 36% | 100% | 100% | – |
| COc1cc(OC)c(Cl)c(-c2nn(C)c(=O)c(C)c2-c2ccc(F)cc2Cl)c1Cl [Compound 169] | 68% | 93% | 43% | 0% | 0% | 37% | – |
| Cn1nc(-c2ccc(F)cc2Cl)c(-c2ccc(F)cc2Cl)c(CCl)c1=O [Compound 170] | 89% | 51% | 76% | 0% | 80% | 99% | – |
| COc1cc(C#N)cc(-c2nn(C)c(=O)cc2-c2c(F)cccc2F)c1 [Compound 71] | 0% | 16% | 0% | 0% | 0% | 8% | – |
| COc1cc(F)c(F)c(-c2nn(C)c(=O)c(C)c2-c2ccc(F)cc2Cl)c1 [Compound 137] | 100% | 66% | 100% | 100% | 100% | 100% | – |
| CCn1nc(-c2cc(OC)cc(OC)c2Cl)c(-c2c(F)cccc2F)c(C)c1=O [Compound 22] | 100% | 100% | 98% | 98% | 79% | 100% | – |
| CCc1c(-c2c(F)cccc2F)c(-c2c(F)cccc2F)nn(C)c1=O [Compound 46] | 98% | 88% | 95% | 0% | 99% | 99% | – |
| CCn1nc(-c2cc(OC)cc(OC)c2Cl)c(-c2c(F)cccc2F)c(Cl)c1=O [Compound 9] | 100% | 99% | 99% | 99% | 91% | 100% | – |
| Cn1nc(-c2ccc(F)cc2Cl)c(-c2ccc(F)cc2Cl)c(C(C)(C)O)c1=O [Compound 123] | 0% | 0% | 0% | 68% | 0% | 0% | – |
| CCn1nc(-c2ccc(F)cc2Cl)c(-c2ccc(F)cc2Cl)c(Cl)c1=O [Compound 24] | – | – | – | – | – | – | Test B disease control rating ([1]; 250 ppm): 80%; Test E disease control rating (Botrytis cinerea; 250 ppm): 100%; Test C disease control rating ([2]; 250 ppm): 93%; Test D disease control rating (Phakopsora pachyrhizi; 250 ppm): 0%; Test F disease control rating (Alternaria solani; 250 ppm): 0%; Test A disease control rating (Zymoseptoria tritici; 250 ppm): 100% |
| CON(C)C(=O)c1c(-c2ccc(F)cc2Cl)c(-c2ccc(F)cc2Cl)nn(C)c1=O [Compound 176] | – | – | – | – | – | – | Test B disease control rating ([1]; 250 ppm): 80%; Test E disease control rating (Botrytis cinerea; 250 ppm): 0%; Test C disease control rating ([2]; 250 ppm): 0%; Test D disease control rating (Phakopsora pachyrhizi; 250 ppm): 0%; Test F disease control rating (Alternaria solani; 250 ppm): 0%; Test A disease control rating (Zymoseptoria tritici; 250 ppm): 4% |
| CCn1nc(-c2c(F)cccc2F)c(-c2c(F)cccc2F)cc1=O [Compound 23] | – | – | – | – | – | – | Test B disease control rating ([1]; 250 ppm): 0%; Test E disease control rating (Botrytis cinerea; 250 ppm): 0%; Test C disease control rating ([2]; 250 ppm): 0%; Test D disease control rating (Phakopsora pachyrhizi; 250 ppm): 0%; Test F disease control rating (Alternaria solani; 250 ppm): 0%; Test A disease control rating (Zymoseptoria tritici; 250 ppm): 0% |
| COc1cc(OC)cc(-c2nn(C)c(=O)c(Cl)c2-c2ccc(F)cc2Cl)c1 [Compound 55] | 100% | 99% | 98% | 99% | 99% | 99% | – |
| COc1c(-c2ccc(F)cc2Cl)c(-c2cccc(F)c2Cl)nn(C)c1=O [Compound 154] | 100% | 100% | 100% | 87% | 100% | 100% | – |
| COc1c(-c2ccc(F)cc2Cl)c(-c2cccc(Cl)c2F)nn(C)c1=O [Compound 109] | 74% | 96% | 99% | 0% | 85% | 100% | – |
| COc1ccc(-c2nn(C)c(=O)c(OC)c2-c2ccc(F)cc2Cl)c(F)c1 [Compound 166] | 91% | 95% | 79% | 0% | 67% | 100% | – |
| CCCc1c(-c2ccc(F)cc2Cl)c(-c2cc(OC)ccc2Cl)nn(C)c1=O [Compound 125] | 0% | 99% | 97% | 17% | 0% | 100% | – |
| COc1cc(F)c(Br)c(-c2nn(C)c(=O)c(Cl)c2-c2ccc(F)cc2Cl)c1 [Compound 159] | 100% | 99% | 99% | 100% | 100% | 100% | – |
| CCn1nc(-c2c(F)cccc2F)c(-c2cc(OC)cc(OC)c2)c(Cl)c1=O [Compound 10, 4-chloro-6-(2,6-difluorophenyl)-5-(3,5-dimethoxyphenyl)-2-ethyl-3(2H)-pyridazinone] | – | – | – | – | – | – | pest or weed control at 250 ppm ([1]; 250 ppm): 0%; pest or weed control at 250 ppm (Botrytis cinerea; 250 ppm): 0%; pest or weed control at 250 ppm ([2]; 250 ppm): 0%; pest or weed control at 250 ppm (Phakopsora pachyrhizi; 250 ppm): 0%; pest or weed control at 250 ppm (Alternaria solani; 250 ppm): 0%; pest or weed control at 250 ppm (Zymoseptoria tritici; 250 ppm): 0% |
| CCc1c(-c2c(F)cccc2F)c(-c2cc(OC)ccc2Cl)nn(C)c1=O [Compound 179, 6-(2-chloro-5-methoxyphenyl)-5-(2,6-difluorophenyl)-4-ethyl-2-methyl-3(2H)-pyridazinone] | – | – | – | – | – | – | pest or weed control at 50 ppm ([1]; 50 ppm): 100%; pest or weed control at 50 ppm (Botrytis cinerea; 50 ppm): 94%; pest or weed control at 50 ppm ([2]; 50 ppm): 100%; pest or weed control at 50 ppm (Phakopsora pachyrhizi; 50 ppm): 100%; pest or weed control at 50 ppm (Alternaria solani; 50 ppm): 100%; pest or weed control at 50 ppm (Zymoseptoria tritici; 50 ppm): 100% |
| CCn1nc(-c2c(F)cccc2F)c(-c2cc(OC)cc(OC)c2)cc1=O [Compound 4, 6-(2,6-difluorophenyl)-5-(3,5-dimethoxyphenyl)-2-ethyl-3(2H)-pyridazinone] | – | – | – | – | – | – | pest or weed control at 250 ppm ([1]; 250 ppm): 0%; pest or weed control at 250 ppm (Botrytis cinerea; 250 ppm): 9%; pest or weed control at 250 ppm ([2]; 250 ppm): 0%; pest or weed control at 250 ppm (Phakopsora pachyrhizi; 250 ppm): 0%; pest or weed control at 250 ppm (Alternaria solani; 250 ppm): 0%; pest or weed control at 250 ppm (Zymoseptoria tritici; 250 ppm): 66% |
